Test results taken from patent US11058713B2, “Treatment and diagnosis of ocular surface disorders” (Advaite LLC., priority 2017, dated 2021).
Entries after “also recorded” stand apart in the source; their conditions may differ.

Columns and labels:
stimulated neutrophils = test: Stimulated neutrophils: inflammatory products (green staining strands), photographs; assay type: cell-based
[1] = tested on: neutrophil inflammatory products; test: Kinetic assay of neutrophil inflammatory products, stimulation by 1 nM PMA; assay type: cell-based; details: FIGS. 9A and 9B
[2] = tested on: mucocellular aggregates from a patient with severe tear deficient DED; test: Ex vivo dissolution of mucocellular aggregates (Hematoxylin-Eosin and Sytox Green); set-up: species or system human; details: sub-anticoagulant heparin 100 IU/ml; substantially intact with culture media (RPMI) only
Procedure: The extracellular structures (green strands) were dissolved when treated with sub-anticoagulant heparin (100 IU/ml), but remained substantially intact when treated with only the culture media (RPMI).

human MG cells = test: Meibomian gland cell proliferation; assay type: cell-based; details: KSFM medium with rNGAL; reduction with rNGAL on addition of NGAL NAb or heparin
Excerpt: Next, the effect of NGAL on proliferation of human MG cells was investigated. […] FIG. 20. […] The reduction of MG cell proliferation with rNGAL was abrogated with addition of NGAL NAb and heparin.

oncostatin M (OSM) [3] = test: Recombinant OSM protein levels after incubation with heparin or NAb; assay type: binding; details: FIG. 15
Procedure: (§1) The molecular component of Neutrophil Extracellular Traps (NETs) that may cause epitheliopathy was investigated. […] OSM was present in abundance in mucocellular aggregates (MCA) collected from definite oGVHD patients. OSM is a heparin binding protein, therefore incubation with heparin or Neutralizing antibody (NAb) reduced recombinant OSM protein levels (FIG. 15).

[4] = tested on: immortalized meibomian gland epithelial cells; test: Meibomian gland cell differentiation, lipid accumulation by LipidTOX staining; assay type: cell-based, human
Excerpt: Meibomian gland disease is a conspicuous feature of oGVHD. As compared to normal meibomian gland, patients with oGVHD have extensive atrophy or truncation of meibomian glands. […] To determine the effect of NETs on meibomian glands, immortalized meibomian gland epithelial cells were cultivated and differentiated. Lipid accumulation was detected using LipidTOX staining. […] The reduction in lipid accumulation with NETs was abrogated with addition of NGAL NAb (21.21±0.83 A.U). […] The reduction of lipid accumulation with rNGAL was abrogated with addition of NGAL NAb (17.82±0.43 A.U) and heparin (15.66±1.72 A.U).

[5] = tested on: human corneal epithelial cells; test: Scratch wound healing of confluent corneal epithelial cells; assay type: cell-based; details: anticoagulant dose heparin 1000 and 10,000 IU/ml; versus RPMI control and 100 IU/ml
Procedure: In this experiment human corneal epithelial cells were grown to confluence and scratch wounds were made.

mouse corneas = test: Recombinant OSM protein induced corneal epithelial disease; assay type: in vivo; details: for corneal fluorescein staining at Day 5: application of OSM, OSM incubated with heparin or OSM incubated with OSM NAb
Excerpt: Excessive amounts of OSM can cause corneal epithelial disease similar to that seen in DED patients. […] OSM inhibitors used can be selected from neutralizing antibodies, neutralizing peptides and small molecules and other gene based approaches. These OSM inhibitors can be used independently as therapeutic proteins/peptides/small molecules for DED treatment.
In addition, whether OSM recombinant protein can produce epitheliopathy similar to NETs and whether reducing OSM levels using heparin or OSM NAb abrogates that effect was also investigated. […] These experiments indicate that NETs cause corneal epitheliopathy possibly due to presence of OSM and epitheliopathy can be prevented with heparin. To test this theory, a patient with oGVHD who had corneal and conjunctival epitheliopathy was treated with heparin eye drop (100 IU/mL) three times a day for four weeks.

[6] = tested on: human corneal epithelial cells; test: Cytotoxicity assay (LDH); assay type: cell-based
oncostatin M (OSM) [7] = target: T1, oncostatin M (OSM) (Mus musculus, UniProt P53347); test: OSM levels in murine NETs; assay type: binding; details: 614.67±95.73 pg/mL without heparin
T1 construct: In murine NETs, OSM is present in great abundance; endogenous in cells; host or cells: murine neutrophil extracellular traps (NETs)
T1 sequence (P53347 23-206): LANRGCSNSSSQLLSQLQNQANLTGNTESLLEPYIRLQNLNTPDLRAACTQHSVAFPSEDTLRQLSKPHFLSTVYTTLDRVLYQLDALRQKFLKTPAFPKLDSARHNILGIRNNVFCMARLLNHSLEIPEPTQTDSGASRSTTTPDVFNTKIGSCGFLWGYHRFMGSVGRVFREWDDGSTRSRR
Procedure: as §1

murine corneas = test: Murine model of neutrophil product (NETs) induced corneal disease; assay type: in vivo
Procedure: Neutrophil products (NETs) when applied to corneal surface induced epithelial disease and fluorescein staining. […] Protein levels of inflammatory cytokines were also determined (IL-lb and IP-10) using a Magpix platform.
Whether reducing OSM levels in naive NETs using heparin or OSM NAb abrogates NETs induced epitheliopathy in murine corneas was investigated. Naive NETs, heparinized NETs and OSM NAb incubated NETs was applied to naïve murine corneas for five consecutive days. […] At Day 5, corneas were excised and abundance of inflammatory cytokines (IL-1β, IL-6 and IP-10) were determined in lysates. […] FIG. 16.

[8] = DFM medium with rNGAL, rNGAL plus NGAL NAb or rNGAL plus heparin, DFM alone 24.92±1.21
[9] = Heparin addition to NETs, protein level, Magpix platform

Molecule: Enoxaparin
- neutrophil inflammatory products (green staining strands) (stimulated neutrophils; Enoxaparin 10, 20, 40 and 80 μg/mL, FIG. 6): dose dependent fashion
- inflammatory strands of neutrophils (stimulated neutrophils; Enoxaparin at 80 μg/mL): almost completely
- amount of neutrophil inflammatory products produced with stimulation by 1 nM PMA [1]: dose dependent reduction; also recorded: dose dependent manner

Molecule: heparin
- extracellular structures (green strands) of mucocellular aggregates [2]: dissolved
- neutrophil inflammatory products (green staining strands) (stimulated neutrophils; heparin 0.01, 0.1, 1, 10 and 100 IU/mL, FIG. 5): dose dependent fashion
- amount of inflammatory strands of neutrophils (stimulated neutrophils; heparin at 100 IU/ml): almost completely
- MG cell proliferation (human MG cells): abrogated
- recombinant OSM protein levels (oncostatin M (OSM) [3]): reduced
- amount of neutrophil inflammatory products produced with stimulation by 1 nM PMA [1]: dose dependent reduction; also recorded: dose dependent manner
- fluorescence intensity of LipidTox Green neutral lipid stain (accumulation of lipids) ([4]; DFM medium with NETs, heparinized NETs or NETs plus NGAL NAb, DFM alone 24.92±1.21, KSFM 6.93±0.57): 33.98±2.18 A.U
- fluorescence intensity of LipidTox Green neutral lipid stain (accumulation of lipids) [4, 8]: 15.66±1.72 A.U
- Epithelial cell healing (scratch wounds) [5]: significantly delayed
- corneal fluorescein staining at Day 5 (mouse corneas): 1.20±0.20
- corneal fluorescein staining induced by OSM (mouse corneas; heparin 100 IU/ml or neutralizing antibody added to recombinant OSM, FIG. 13): significantly reduced
- LDH ([6]; anticoagulant dose heparin 1000 and 10,000 IU/ml, versus RPMI control and 100 IU/ml): significantly higher
- human corneal epithelial cell cytotoxicity ([6]; anticoagulant dose of heparin (1000 and 10,000 IU/ml)): causes human corneal epithelial cell cytotoxicity
- human corneal epithelial cell cytotoxicity ([6]; sub-anticoagulant dose of heparin (100 IU/ml)): does not cause cytotoxicity
- OSM levels in heparinized NETs (oncostatin M (OSM) [7]): 19.95 ± 0.00 pg/mL
- epithelial disease and fluorescein staining (murine corneas; Heparin (100 IU/ml) added to NETs applied to corneal surface): significantly reduced
- corneal abundance of IL-lb (murine corneas; [9]): significantly reduced
- corneal abundance of IP-10 (murine corneas; [9]): significantly reduced
- corneal fluorescein staining at Day 5 (murine corneas; naive NETs, heparinized NETs or OSM NAb incubated NETs applied to naïve murine corneas for five consecutive days): 0.80±0.49

B1: OSM: OSM recombinant protein applied to mouse corneas (protein, UniProt P53347 25-206, looked up)
Oncostatin-M: NRGCSNSSSQLLSQLQNQANLTGNTESLLEPYIRLQNLNTPDLRAACTQHSVAFPSEDTLRQLSKPHFLSTVYTTLDRVLYQLDALRQKFLKTPAFPKLDSARHNILGIRNNVFCMARLLNHSLEIPEPTQTDSGASRSTTTPDVFNTKIGSCGFLWGYHRFMGSVGRVFREWDDGSTRSRR
- corneal fluorescein staining at Day 5 (mouse corneas): 8.75±0.48

B2: rNGAL: recombinant NGAL (neutrophil gelatinase-associated lipocalin) (protein, UniProt P80188 21-198, looked up)
Neutrophil …: QDSTSDLIPAPPLSKVPLQQNFQDNQFQGKWYVVGLAGNAILREDKDPQKMYATIYELKEDKSYNVTSVLFRKKKCDYWIRTFVPGCQPGEFTLGNIKSYPGLTSYLVRVVSTNYNQHAMVFFKKVSQNREYFKITLYGRTKELTSELKENFIRFSKSLGLPENHIVFPVPIDQCIDG
- MG cell proliferation (human MG cells): significantly decreased
- fluorescence intensity of LipidTox Green neutral lipid stain (accumulation of lipids) [4, 8]: 10.88±0.35 A.U
